How the values were obtained:
[1] = target: Fibroblast growth factor receptor 1 (Homo sapiens, UniProt P11362); experiment: Inhibitory activity against Fibroblast growth factor receptor 1
[2] = target: Epidermal growth factor receptor (Homo sapiens, UniProt P00533)
[3] = target: Platelet-derived growth factor receptor beta (Homo sapiens, UniProt P09619)
[4] = target: Vascular endothelial growth factor receptor 2 (Homo sapiens, UniProt P35968)
Vascular endothelial growth factor receptor 2, sequence (P35968 whole entry): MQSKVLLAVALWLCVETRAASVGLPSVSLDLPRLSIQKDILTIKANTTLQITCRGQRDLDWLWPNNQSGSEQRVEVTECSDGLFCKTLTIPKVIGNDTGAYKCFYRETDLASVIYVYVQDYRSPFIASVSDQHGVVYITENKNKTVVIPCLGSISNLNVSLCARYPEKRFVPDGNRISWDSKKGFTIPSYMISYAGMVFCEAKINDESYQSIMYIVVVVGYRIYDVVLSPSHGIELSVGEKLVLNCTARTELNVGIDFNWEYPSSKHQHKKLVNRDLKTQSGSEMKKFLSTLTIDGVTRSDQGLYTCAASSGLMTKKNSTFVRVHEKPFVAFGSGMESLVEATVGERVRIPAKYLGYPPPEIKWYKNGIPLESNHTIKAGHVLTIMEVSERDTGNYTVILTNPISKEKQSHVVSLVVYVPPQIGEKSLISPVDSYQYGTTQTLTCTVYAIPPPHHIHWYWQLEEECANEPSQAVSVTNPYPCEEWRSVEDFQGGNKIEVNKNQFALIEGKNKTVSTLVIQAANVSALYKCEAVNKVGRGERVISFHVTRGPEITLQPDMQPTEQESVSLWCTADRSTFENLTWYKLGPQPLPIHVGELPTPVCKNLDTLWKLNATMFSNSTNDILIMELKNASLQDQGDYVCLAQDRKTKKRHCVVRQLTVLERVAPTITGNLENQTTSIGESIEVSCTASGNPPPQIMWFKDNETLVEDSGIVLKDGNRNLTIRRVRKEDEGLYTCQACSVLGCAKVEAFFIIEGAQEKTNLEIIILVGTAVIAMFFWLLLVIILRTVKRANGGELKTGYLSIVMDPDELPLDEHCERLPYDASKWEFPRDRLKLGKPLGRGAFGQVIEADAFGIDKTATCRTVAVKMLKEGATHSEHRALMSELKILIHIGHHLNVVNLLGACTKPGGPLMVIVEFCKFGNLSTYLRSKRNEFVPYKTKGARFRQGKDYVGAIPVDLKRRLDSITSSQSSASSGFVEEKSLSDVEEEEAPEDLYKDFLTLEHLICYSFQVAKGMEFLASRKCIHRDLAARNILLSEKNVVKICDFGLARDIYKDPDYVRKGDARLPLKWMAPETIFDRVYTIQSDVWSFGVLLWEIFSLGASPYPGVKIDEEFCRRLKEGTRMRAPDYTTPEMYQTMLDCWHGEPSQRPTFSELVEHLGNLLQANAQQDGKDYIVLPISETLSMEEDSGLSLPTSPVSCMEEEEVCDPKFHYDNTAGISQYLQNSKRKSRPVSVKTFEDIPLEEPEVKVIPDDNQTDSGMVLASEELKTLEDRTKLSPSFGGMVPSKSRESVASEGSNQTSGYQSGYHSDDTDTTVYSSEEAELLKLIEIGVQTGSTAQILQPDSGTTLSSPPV

Platelet-derived growth factor receptor beta, sequence (P09619 whole entry): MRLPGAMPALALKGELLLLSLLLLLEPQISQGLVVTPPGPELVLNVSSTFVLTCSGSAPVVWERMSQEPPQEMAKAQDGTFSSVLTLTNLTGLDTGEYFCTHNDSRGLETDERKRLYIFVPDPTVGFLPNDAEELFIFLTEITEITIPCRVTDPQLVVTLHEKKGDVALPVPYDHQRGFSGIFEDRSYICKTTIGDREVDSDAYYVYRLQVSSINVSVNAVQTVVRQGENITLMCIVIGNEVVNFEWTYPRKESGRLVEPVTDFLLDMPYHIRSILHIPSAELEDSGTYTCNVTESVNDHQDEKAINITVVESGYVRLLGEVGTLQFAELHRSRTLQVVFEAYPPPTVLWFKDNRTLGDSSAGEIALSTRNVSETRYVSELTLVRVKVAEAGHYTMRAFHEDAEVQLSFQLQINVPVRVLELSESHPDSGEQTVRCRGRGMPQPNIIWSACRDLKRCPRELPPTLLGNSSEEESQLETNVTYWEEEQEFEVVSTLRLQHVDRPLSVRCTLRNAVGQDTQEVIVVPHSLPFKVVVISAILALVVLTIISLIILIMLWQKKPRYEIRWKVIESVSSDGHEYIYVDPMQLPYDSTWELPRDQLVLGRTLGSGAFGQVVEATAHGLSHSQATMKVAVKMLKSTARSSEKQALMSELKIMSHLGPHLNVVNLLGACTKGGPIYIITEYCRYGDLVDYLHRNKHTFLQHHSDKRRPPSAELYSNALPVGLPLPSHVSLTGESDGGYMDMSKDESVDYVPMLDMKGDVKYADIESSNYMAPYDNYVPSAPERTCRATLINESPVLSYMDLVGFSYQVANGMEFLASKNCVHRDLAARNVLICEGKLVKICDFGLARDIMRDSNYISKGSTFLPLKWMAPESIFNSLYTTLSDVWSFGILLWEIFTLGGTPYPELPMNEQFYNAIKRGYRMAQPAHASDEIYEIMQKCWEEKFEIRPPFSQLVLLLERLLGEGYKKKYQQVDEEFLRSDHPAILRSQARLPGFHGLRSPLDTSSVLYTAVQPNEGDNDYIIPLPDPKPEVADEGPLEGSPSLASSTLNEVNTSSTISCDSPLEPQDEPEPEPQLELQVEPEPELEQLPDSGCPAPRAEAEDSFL
Fibroblast growth factor receptor 1, sequence (P11362 whole entry): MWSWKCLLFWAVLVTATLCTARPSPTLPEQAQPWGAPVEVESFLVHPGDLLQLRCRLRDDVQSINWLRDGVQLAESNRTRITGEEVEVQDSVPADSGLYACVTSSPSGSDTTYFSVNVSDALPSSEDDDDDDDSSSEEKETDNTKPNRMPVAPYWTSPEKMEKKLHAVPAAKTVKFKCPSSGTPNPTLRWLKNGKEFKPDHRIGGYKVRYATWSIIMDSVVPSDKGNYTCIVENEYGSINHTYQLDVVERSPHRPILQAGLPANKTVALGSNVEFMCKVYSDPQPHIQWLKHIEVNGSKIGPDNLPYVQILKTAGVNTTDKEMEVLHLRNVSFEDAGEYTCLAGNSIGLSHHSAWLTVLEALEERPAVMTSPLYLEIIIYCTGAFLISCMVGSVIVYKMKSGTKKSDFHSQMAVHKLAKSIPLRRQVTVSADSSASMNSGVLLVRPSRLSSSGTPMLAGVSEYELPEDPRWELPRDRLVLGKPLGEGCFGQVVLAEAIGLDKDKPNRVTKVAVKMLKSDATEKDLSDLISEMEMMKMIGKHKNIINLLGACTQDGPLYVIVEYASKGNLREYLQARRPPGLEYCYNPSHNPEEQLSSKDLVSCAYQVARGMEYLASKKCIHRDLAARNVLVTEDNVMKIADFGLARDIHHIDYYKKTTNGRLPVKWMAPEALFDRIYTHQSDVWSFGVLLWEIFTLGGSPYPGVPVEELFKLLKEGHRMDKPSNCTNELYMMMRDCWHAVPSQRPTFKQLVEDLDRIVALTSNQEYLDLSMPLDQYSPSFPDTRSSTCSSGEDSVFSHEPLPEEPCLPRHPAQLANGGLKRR
Epidermal growth factor receptor, sequence (P00533 whole entry): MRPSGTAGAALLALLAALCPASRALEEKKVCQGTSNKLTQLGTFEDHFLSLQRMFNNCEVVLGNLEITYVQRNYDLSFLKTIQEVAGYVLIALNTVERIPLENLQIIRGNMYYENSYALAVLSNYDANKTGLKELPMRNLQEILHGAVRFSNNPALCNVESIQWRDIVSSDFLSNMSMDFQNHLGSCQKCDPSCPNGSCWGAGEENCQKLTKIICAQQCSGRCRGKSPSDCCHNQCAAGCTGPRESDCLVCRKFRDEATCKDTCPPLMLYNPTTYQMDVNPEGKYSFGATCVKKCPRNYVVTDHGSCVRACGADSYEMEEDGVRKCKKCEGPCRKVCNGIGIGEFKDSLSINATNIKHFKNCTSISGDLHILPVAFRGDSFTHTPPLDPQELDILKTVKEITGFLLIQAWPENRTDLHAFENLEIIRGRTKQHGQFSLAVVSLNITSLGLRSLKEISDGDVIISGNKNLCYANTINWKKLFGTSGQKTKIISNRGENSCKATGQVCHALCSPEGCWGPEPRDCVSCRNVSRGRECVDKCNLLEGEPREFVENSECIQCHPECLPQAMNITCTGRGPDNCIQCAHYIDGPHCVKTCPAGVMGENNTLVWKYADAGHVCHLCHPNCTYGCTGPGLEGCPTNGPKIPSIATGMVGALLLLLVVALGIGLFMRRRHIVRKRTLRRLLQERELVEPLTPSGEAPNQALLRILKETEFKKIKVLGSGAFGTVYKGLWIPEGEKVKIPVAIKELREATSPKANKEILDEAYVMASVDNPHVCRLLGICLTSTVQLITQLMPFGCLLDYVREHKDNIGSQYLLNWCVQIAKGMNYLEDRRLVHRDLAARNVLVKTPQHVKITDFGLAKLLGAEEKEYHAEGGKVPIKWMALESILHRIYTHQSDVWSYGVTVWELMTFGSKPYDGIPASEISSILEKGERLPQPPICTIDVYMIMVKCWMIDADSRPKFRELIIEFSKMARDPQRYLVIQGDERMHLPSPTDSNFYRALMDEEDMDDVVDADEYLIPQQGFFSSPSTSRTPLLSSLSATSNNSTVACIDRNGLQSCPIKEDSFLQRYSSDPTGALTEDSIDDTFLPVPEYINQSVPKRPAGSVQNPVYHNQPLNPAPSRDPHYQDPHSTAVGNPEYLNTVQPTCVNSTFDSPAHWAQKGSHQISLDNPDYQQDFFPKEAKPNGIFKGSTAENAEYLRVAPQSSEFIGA

SMILES | IC50 [1] [nM] | IC50 [2] [nM] | IC50 [3] [nM] | IC50 [4] [nM]
COc1ccccc1-c1ccc2c(c1)NC(=O)/C2=C\c1[nH]c(C)c(CCC(=O)O)c1C | 7330 | > 100000 | 2220 | 4370
Cc1c(CCC(=O)O)c[nH]c1/C=C1\C(=O)Nc2ccc(S(N)(=O)=O)cc21 | 460 | > 100000 | 5980 | 920
COc1ccccc1-c1ccc2c(c1)NC(=O)/C2=C\c1[nH]cc(CCC(=O)O)c1C | 2130 | > 100000 | 1420 | 1470
Cc1c[nH]c(/C=C2\C(=O)Nc3cccc(C)c32)c1CCC(=O)O |  | > 100000 |  | 
COc1cccc(-c2ccc3c(c2)NC(=O)/C3=C\c2[nH]cc(CCC(=O)O)c2C)c1 | 360 | > 100000 | 170 | 90
Cc1c[nH]c(/C=C2\C(=O)Nc3ccc(Br)cc32)c1CCC(=O)O |  | > 100000 |  | 
COc1ccc(-c2ccc3c(c2)NC(=O)/C3=C\c2[nH]cc(CCC(=O)O)c2C)cc1 | 1540 | > 100000 | 3080 | 450
Cc1[nH]c(/C=C2\C(=O)Nc3ccc(C(=O)O)cc32)c(C)c1CCC(=O)O | 280 | > 100000 | 1210 | 70
Cc1[nH]c(/C=C2\C(=O)Nc3cc(-c4ccccc4)ccc32)c(C)c1CCC(=O)O | 2290 | > 100000 | 10 | 140
COc1ccc2c(c1)NC(=O)/C2=C\c1[nH]cc(CCC(=O)O)c1C | 3890 | > 100000 | 140 | 1350
COc1ccc(-c2ccc3c(c2)NC(=O)/C3=C\c2[nH]c(C)c(CCC(=O)O)c2C)cc1 | 5760 | > 100000 | 1000 | 520
Cc1[nH]c(/C=C2\C(=O)Nc3ccc(S(N)(=O)=O)cc32)c(C)c1CCC(=O)O | 280 |  | 1530 | 1260
Cc1c(CCC(=O)O)c[nH]c1/C=C1\C(=O)Nc2ccccc21 | 3680 | > 100000 | 140 | 2140
Cc1c(CCC(=O)O)c[nH]c1/C=C1\C(=O)Nc2cc(-c3ccccc3)ccc21 | 1050 | > 100000 | 160 | 300
COc1ccc2c(c1)NC(=O)/C2=C\c1[nH]c(C)c(CCC(=O)O)c1C | 5400 | > 100000 | 550 | 8290
Cc1[nH]c(/C=C2\C(=O)Nc3ccc(Br)cc32)c(C)c1CCC(=O)O | 2050 | > 100000 | 60 | 1730
COc1cccc(-c2ccc3c(c2)NC(=O)/C3=C\c2[nH]c(C)c(CCC(=O)O)c2C)c1 | 1400 | > 100000 | 100 | 300
Cc1c(CCC(=O)O)c[nH]c1/C=C1\C(=O)Nc2ccc(C(=O)O)cc21 | 770 | > 100000 | 4190 | 240
CCOc1cccc(-c2ccc3c(c2)NC(=O)/C3=C\c2[nH]cc(C)c2CCC(=O)O)c1 | 4500 | > 100000 |  | 
COc1cccc(-c2ccc3c(c2)NC(=O)/C3=C\c2[nH]cc(C)c2CCC(=O)O)c1 | 1200 | > 100000 | 450 | 
Cc1c[nH]c(/C=C2\C(=O)Nc3ccccc32)c1CCC(=O)O | 30 | > 100000 | 510 | 20
Cc1[nH]c(/C=C2\C(=O)Nc3ccccc32)c(C)c1CCC(=O)O [ORANTINIB] |  |  | 60 | 

— ChEMBL document CHEMBL1132535, “Design, synthesis, and evaluations of substituted 3-[(3- or 4-carboxyethylpyrrol-2-yl)methylidenyl]indolin-2-ones as inhibitors of VEGF, FGF, and PDGF receptor tyrosine kinases” (J Med Chem, 1999)
